Several values for one entry are separate records, joined by “and”; a condition that tells them apart may be missing. Identical values can stand only once. Entries after “also recorded” stand apart in the source; their conditions may differ.
Assays:
[1] = test system: mitochondrial respiration; test: Decrease of mitochondrial respiration; settings: dose administered to achieve protection
[2] = test system: Ventricular embryonic chick cardiomyocytes; test: Return of synchronous cell contraction after simulated ischemia/reperfusion; type: cell-based; settings: for return of contractions (groups with return/total): no return in control cells
Description: (§1) Ventricular embryonic chick cardiomyocytes were prepared according to published procedure. (Vanden Hoek T L, Becker L B, Shao Z, et al. Reactive oxygen species released from mitochondria during brief hypoxia induce preconditioning in cardiomyocytes, J. Biol. Chem. […]; 273:18092-18098, which is incorporated herein by reference). 10-day old chicken embryo hearts were removed, ventricular tissue minced into 0.5 mm fragments, enzymatically dispersed with 0.025% trypsin (Life Technologies, New York, N.Y.), centrifuged, 0.7×10^6 cells were pipetted onto 25 mm coverslips, and incubated with 5% CO2. Coverslips were checked for non-muscle cell contamination. Experiments were performed with 3-5 day cardiac cell cultures, by which time a synchronously contracting layer of cells could be visualized and viability exceeded 95%.
(§2) Normoxic perfusate used for baseline conditions and for reperfusion subsequent to ischemia contained oxygenated balanced salt solution (BSS) with a PO2 OF 149 torr, PCO2 of 40 torr, pH of 7.4, and [K]^+ of 4.0 mEq/L, and glucose (5.6 mM). To simulate ischemia, the perfusate contained BSS with 2-deoxyglucose (2-DOG) (20 mM) rather than glucose and [K]^+ of 8.0 mEq/L. The ischemic perfusate was equilibrated with 80% N2 and 20% CO2 prior to use to produce a PO2 of ˜5 torr, a PCO2 of 144 torr and a final pH of 6.8.
Contractions were assessed by monitoring synchronous movement within the same field of cells as previously reported. A return of contraction following simulated ischemia/reperfusion was indicated when contractions could be seen throughout the field of cells following the three hour period of reperfusion.

[3] = test system: reactive oxygen species (ROS) in embryonic chick cardiomyocytes; test: Intracellular ROS (DCF fluorescence) at reperfusion after simulated ischemia; type: cell-based; settings: for maximal DCF fluorescence intensity: control 2.8±0.2 a.u.
Description: as §1
(§3) Coverslips with contracting cells were placed in a 1.2 mL Sykes-Moore perfusion chamber (Bellco Glass Inc., Vineland, N.J.). The chamber and inflow tubing were maintained at 37° C. Perfusate was supplied to the chamber (0.25 ml/min) via stainless steel tubing to minimize diffusive entry of ambient O2.
as §2
Intracellular oxidant stress due to ROS was monitored real time with the intracellular probe 2′,7′-dichlorofluorescin diacetate (DCFH-DA, 5 μM, Molecular Probes, Eugene, Oreg.) as described in published literature (Vanden Hoek, F L, et al., Reactive oxygen species released from mitochondria during brief hypoxia induce preconditioning in cardiomyocytes, J. Biol. Chem. […]; 273:18092-18098, which is incorporated by reference herein; Vanden Hoek, T L, et al, Preconditioning in cardiomyocytes protects by attenuating oxidant stress at reperfusion, Circ Res 2000; 86:534-540, which is incorporated by reference herein; Vanden Hoek, T L, Reperfusion, not simulated ischemia initiates intrinsic apoptosis injury in chick cardiomyocytes Am J. Physiol Heart Physiol 2003; 284:H141-150, which is incorporated by reference herein). DCFH-DA is cleaved by cellular esterases upon entry into the cells, trapping the nonfluorescent 2′,7′-dichlorofluorescin (DCFH) inside. ROS, particularly hydrogen peroxide (H2O2) and hydroxyl radical generate the fluorescent product dichlorofluorescein (DCF) by causing the oxidation of DCFH. Increases in DCF fluorescence result from DCFH oxidation to DCF. DCF fluorescence was measured at an excitation wavelength of 480 nm, and a 520 nm band pass emission filter. Attention was focused on the maximal DCF fluorescence intensity value during the first minutes of reperfusion for comparison. All measurements were expressed in arbitrary units (a.u.) of fluorescence.
(§4) For each experiment a field of about 500 cells was observed. Treatment and control groups were matched in sets containing cells isolated and cultured on the same day so as to eliminate variability due to cell batch. Additional 25 mm coverslips were used for replicate experiments (“n”). Results are reported as means plus or minus S.E.M. and two-tailed unpaired t-tests comparing similar time points throughout ischemia and reperfusion were used as tests of significance, with p<0.05 considered to be significant.

[4] = test system: Ventricular embryonic chick cardiomyocytes; test: Cell death (propidium iodide viability assay) after simulated ischemia/reperfusion; type: cell-based
Description: Ventricular embryonic chick cardiomyocytes were prepared according to published procedure. […] Coverslips were checked for non-muscle cell contamination.
as §3
Cell viability was assessed with the fluorochrome propidium iodide (PI) (5 μM, Molecular Probes, Eugene, Oreg.). PI is excluded from viable cells, but enters cells and binds to chromatin after loss of cell membrane integrity. The cells then become highly fluorescent (excitation wavelength of 540 nm and a 590 nm band pass emission filter). PI was used to quantify cell death throughout the entire time of each experiment. […] All cells in the field studied were stained with PI at the end of the experiment by permeabilizing the cells with digitonin (300 μM). Percent cell death was then calculated as the PI fluorescence at any given time point relative to the maximal fluorescence value seen after digitonin exposure.
as §4

[5] = test system: nitric oxide (NO) generation in embryonic chick cardiomyocytes; test: NO generation (DAF-2 fluorescence) during ischemia/reperfusion; type: cell-based; settings: L-NAME 200 μM during I/R, n=8
Description: as §1, with “al:” for “al.”, “0.25%” for “0.025%”, “95%. […]” for “95%.”
Endogenous NO generation has been implicated to have both protective and detrimental roles in various in vitro and in vivo models of I/R injury. To test whether endogenous NO was affected by hypocarbic or hypercarbic reperfusion, we continuously monitored the entire course of I/R using the NO indicator DAF-2 DA of cells treated as described in Example 2.
Cells were treated as described in Example 11, and the NO profile and cell viability was assessed in hypercarbic reperfusion compared with hypercarbic reperfusion with 200 μM L-NAME incubated during I/R as described above.

[6] = test system: reactive oxygen species (ROS) in embryonic chick cardiomyocytes; test: ROS (DCF fluorescence) during hypocarbic/normocarbic/hypercarbic reperfusion; type: cell-based; settings: apocynin 300 μM during reperfusion
Description: as §1, with “al:” for “al.”, “0.25%” for “0.025%”
To simulate ischemia, the perfusate contained BSS with 2-deoxyglucose (2-DOG) (20 mM) rather than glucose, 18 mM NaCO3 and [K]^+ of 8.0 mEq/L, and was equilibrated with 80% N2 and 20% CO2 to produce a final PO2 of 3-5 torr, PCO2 of 144 torr, and pH 6.8. In addition, 20 mM of glycolytic inhibition 2-deoxyglucose was added to better model adenosine triphosphate depletion.
For perfusion, three perfusate solutions were used: normocarbic reperfusion perfusate, hypocarbic reperfusion perfusate and hypercarbic reperfusion perfusate. […]

[7] = 20 μM NADH isomer at reperfusion

O=C(O)c1ccc2cc3ccccc3cc2c1 [2-anthracene-carboxylic acid]
decrease of mitochondrial respiration [1]: 10-15% | return of synchronous contractions (groups with return/total) ([2]; 0.1 μM, first 10 minutes of reperfusion, control 0/7): 5/5 | maximal DCF fluorescence intensity ([3]; 0.1 μM, first 10 minutes of reperfusion, n=3): 1.7±0.1 a.u. | I/R induced cell death ([4]; 0.1 μM, first 10 minutes of reperfusion, control 47.1±3.0%, n=5): 26.1±4.0% | cell death ([4]; 1 μM as printed in Example 4, first 10 minutes of reperfusion, control 47.1±3.0%, n=5): 26.1±4.0%

CCN(CC)C(=S)S [DDC, diethyldithiocarbamic acid]
maximal DCF fluorescence intensity ([3]; DDC 1 mM during simulated ischemia and first 15-30 min of reperfusion, n=5): 1.6±0.1 a.u. | I/R induced cell death ([4]; DDC 1 mM during reperfusion, control 49.7±6.7%, n=5): 15.7±4.7%

COC(=O)[C@@H](N)CCCNC(=N)N[N+](=O)[O-] [L-NAME, N^G-nitro-L-arginine methyl ester]
NO generation (DAF-2 fluorescence) during hypercarbic reperfusion [5]: blocked maintenance of the sustained NO levels; also recorded: reduction of the sustained increase of NO generation

COc1cc(C(C)=O)ccc1O [apocynin]
ROS burst (DCF fluorescence) in hypocarbic reperfusion ([6]; hypocarbic): did not attenuate the reperfusion ROS burst; also recorded: increased the ROS burst | ROS burst (DCF fluorescence) in normocarbic reperfusion ([6]; normocarbic): did not attenuate the reperfusion ROS burst; also recorded: increased the ROS burst

C=C(C)[C@H]1Cc2c(ccc3c2O[C@@H]2COc4cc(OC)c(OC)cc4[C@@H]2C3=O)O1 [rotenone]
maximal peak DCF fluorescence intensity (reperfusion ROS) ([3]; rotenone 5 μM (representative of all doses), control 2.4±0.3 a.u., n=5): 0.7±0.1 a.u. | protection against I/R injury (cell protection) ([4]; all tested doses of rotenone, including nanomolar doses for first 15 minutes of reperfusion): no tested dose of rotenone conferred cell protection | cell death ([4]; rotenone 100 nM, first 15 minutes of reperfusion, control 50.2±3.0%, n=3): 61.3±1.6% | cell death ([4]; rotenone 1 μM, first 15 minutes of reperfusion, control 50.2±3.0%, n=3): 77.4±6.6% and 77.1±6.6% | cell death ([4]; rotenone 10 μM, first 15 minutes of reperfusion, control 50.2±3.0%, n=3): 66.1±3.4% and 66.2±3.4%

C/C=C(C)/C=C/C=C/[C@H](OC)[C@@H](C)[C@@H](OC)[C@@H](C)CCc1oc2c(O)c(OC)cc(OC)c2c(=O)c1C [stigmatellin]
return of contractions (groups with return/total) ([2]; stigmatellin 2-20 nM, first 15 minutes of reperfusion): 5/5 | reperfusion ROS ([3]; stigmatellin 100 μM, first 15 min of reperfusion): ROS was abrogated | maximal peak DCF fluorescence intensity ([3]; stigmatellin 2-20 nM, first 15 min of reperfusion, control 2.4±0.3 a.u., n=5): 0.46±0.02 a.u. | reperfusion ROS ([3]; stigmatellin given during the whole 3 hour course of reperfusion): ROS was attenuated | cell death ([4]; stigmatellin 20 nM, first 15 minutes of reperfusion, control 50.2±3.0%, n=3): 20.3±5.0% | cell death ([4]; stigmatellin 100 μM, 3 hours of reperfusion, control 50.2±3.0%, n=3): 80.1±6.0% | cell death ([4]; stigmatellin 100 μM, first 15 minutes of reperfusion, control 50.2±3.0%, n=3): 52.3±3.0% | I/R cell death ([4]; stigmatellin 2-20 nM, first 15 min of reperfusion, control 53.8±3.5%, n=5): 10.8±2.9%

NC(=O)C1=CN([C@H]2O[C@H](COP(=O)(O)OP(=O)(O)OC[C@H]3O[C@@H](n4cnc5c(N)ncnc54)[C@H](O)[C@@H]3O)[C@@H](O)[C@H]2O)C=CC1 [α-NADH]
return of contractions (groups with return/total) [2, 7]: 5/5 | effect on β-NADH induced increase in ROS ([3]; α-NADH 20 μM co-treated with β-NADH 20 μM): blocked this increase in ROS; also recorded: reversal of the increase was observed | I/R cell death ([4]; exogenous α-NADH 20 μM, control 47.1±3.0%, n=5): 13.8±1.3%

NC(=O)C1=CN([C@@H]2O[C@H](COP(=O)(O)OP(=O)(O)OC[C@H]3O[C@@H](n4cnc5c(N)ncnc54)[C@H](O)[C@@H]3O)[C@@H](O)[C@H]2O)C=CC1 [β-NADH]
return of contractions (groups with return/total) [2, 7]: absence of contractile return | percent increase in ROS generation during reperfusion over ischemia ([3]; exogenous β-NADH 20 μM, first 10 minutes of reperfusion, control 86.2±19.6%, n=8): 511±123% | I/R cell death versus control ([4]; exogenous β-NADH 20 μM, first 10 minutes of reperfusion): showed no benefit
